Results reported in patent US20230242993A1, “METHOD FOR SCREENING MARKERS FOR PREDICTING PROGNOSIS OF RENAL CELL CARCINOMA USING TRANSCRIPTOMIC ANALYSIS” (Gwangju Institute of Science and Technology, priority 2021, published 2023).

Experiments:
[1] = system: RENCA RCC cells co-cultured with RAW264.7 macrophages; assay: Transwell invasion analysis of RENCA RCC cells co-cultured with RAW264.7 macrophages; assay type: cell-based, mouse; conditions: compound treatment, FIGS. 11, 12, 16, 17
Protocol: RENCA mouse renal epithelial adenocarcinoma cells and RAW264.7 mouse macrophages were purchased from the Korean Cell Line Bank (Seoul, Korea). RENCA and RAW264.7 cells were maintained in Dulbecco's Modified Eagle Medium (DMEM) medium (Gibco, Thermo Fisher Scientific, Waltham, Mass., USA) supplemented with 10% FBS and 1% penicillin/streptomycin.
Cancer cell invasion analysis was performed in a 24-well transwell plate (Corning Costar, New York, N.Y., USA). A transwell having a pore size of 8 μm was coated with Type I collagen (3 μg/60 μL/well). A total of 4×10^4 bone marrow-derived macrophage (BMDM) cells were seeded in the lower chamber and differentiated into macrophages by using cancer CM. A total of 1×10^4 cancer cells were seeded into the upper transwell. After 24 or 48 hours, cancer cells that invaded into the lower chamber through the porous membrane were fixed with 3.7% formaldehyde and stained with 0.2% crystal violet. Images of the stained cells were obtained by using an optical microscope (CKX41, Olympus, Tokyo, Japan) and analyzed by using the ImageJ software program (NIH, Bethesda, Md., RRID:SCR_003070). To evaluate the effect of DUSP22 or MAPK14 knockdown, 1×10^5 RAW264.7 cells were seeded in the lower chamber and transfected with siRNA.

[2] = system: RCC cells co-transplanted with macrophages; assay: Zebrafish cancer xenograft model of RCC cell dissemination (early stage of metastasis); assay type: in vivo; conditions: macrophages treated with compound before co-transplantation with RCC cells into zebrafish embryos; vs DMSO-treated macrophages; FIGS. 14, 15
Protocol: Evaluation of in vivo mouse RCC cell dissemination (early stage of metastasis) was performed by using a validated zebrafish model.
Embryos of 48 hours post-fertilization were prepared for cell xenotransplantation and either 39 or 44 embryos were used for each treatment group. After the RCC cells were stained with 2 μg/mL DiI (Invitrogen), the villus of the embryos was removed, and then the embryos were anesthetized with 0.0016% tricaine. An injector (Picospritzer ? , Parker Hannifin, Cleveland, Ohio, USA) was used to inject 200 RCC cells into the center of egg yolk or a mixture of the RCC cells and DMSO-treated macrophages or of the RCC cells and DUSP inhibitor-treated macrophages (1:1 ratio) was injected to the center of egg yolk. The xenotransplanted embryos were transferred to a 96-well plate of 200 μL of E3 medium. The number of embryos, representing the dissemination of cancer cells from the injection site, was counted by using a fluorescence microscope (Leica DM2500 Microscope).

Row | SMILES | RCC invasion induced by the co-culture with macrophages [1] | dissemination (early stage of metastasis) in vivo [2]
1 | O=C(O)c1ccc(N2C(=O)/C(=C/c3ccccc3)SC2=S)cc1 [BML-260] | inhibited | significantly inhibited
2 | O=C(O)c1ccc(/C=C2\SC(=S)N(c3cccc(C(F)(F)F)c3)C2=O)cc1 [CFTRinh-172] | inhibited | –
